Laboratory results published in patent US7230002B2, “Dipeptidyl peptidase IV inhibitors; processes for their preparation and compositions thereof” (Glenmark Pharmaceuticals Ltd., priority 2004, dated 2007).
Structures can show the parent of a compound that is named as a salt.

These molecules were tested against T1, human recombinant Dipeptidyl peptidase IV enzyme (Homo sapiens, UniProt P27487) (assay: In-vitro DPP-IV assay (cleavage of Gly-Pro-AMC)). Conditions: at 300 nM, n = 3, read-out: DPP-IV inhibition, percent inhibition at 300 nM.
T1 construct: purchased R & D Systems
T1 sequence (P27487 whole entry): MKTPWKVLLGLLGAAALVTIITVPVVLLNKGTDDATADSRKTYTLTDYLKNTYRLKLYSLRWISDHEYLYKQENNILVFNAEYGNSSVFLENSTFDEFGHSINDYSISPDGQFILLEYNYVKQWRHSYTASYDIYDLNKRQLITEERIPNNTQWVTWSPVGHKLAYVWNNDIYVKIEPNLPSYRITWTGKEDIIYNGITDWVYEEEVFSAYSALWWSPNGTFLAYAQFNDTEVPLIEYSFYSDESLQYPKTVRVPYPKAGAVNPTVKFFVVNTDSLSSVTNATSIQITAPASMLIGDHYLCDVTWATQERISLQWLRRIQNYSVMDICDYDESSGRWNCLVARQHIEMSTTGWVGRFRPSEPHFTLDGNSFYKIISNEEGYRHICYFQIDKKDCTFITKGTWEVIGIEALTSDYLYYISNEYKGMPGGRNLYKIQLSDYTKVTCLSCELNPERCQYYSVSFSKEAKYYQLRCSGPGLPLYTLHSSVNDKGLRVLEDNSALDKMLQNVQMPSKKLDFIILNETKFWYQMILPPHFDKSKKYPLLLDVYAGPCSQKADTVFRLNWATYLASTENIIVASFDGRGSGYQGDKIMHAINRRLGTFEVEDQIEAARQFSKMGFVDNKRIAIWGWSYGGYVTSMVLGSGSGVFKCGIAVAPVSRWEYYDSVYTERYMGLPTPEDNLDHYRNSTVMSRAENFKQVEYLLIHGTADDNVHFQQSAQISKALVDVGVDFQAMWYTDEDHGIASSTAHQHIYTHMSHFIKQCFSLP
Assay type: biochemical
Experimental: Protocol for In-Vitro DPP-IV Assay
DPPIV activity was determined by the cleavage rate of 7-amino-4-methyl coumarin (AMC) from synthetic substrate Glycyl-Prolyl-AMC. In brief, the assay was conducted by adding 10 ng of human recombinant Dipeptidyl peptidase IV enzyme (DPPIV, available commercially from R & D Systems) in 50 μl of the assay buffer (25 mM Tris, pH 7.4, 140 mM NaCl, 10 mM KCl, 1% BSA) to 96 well black flat bottom microtiter plates. The reaction was initiated by adding 50 μl of 100 μM substrate Gly-Pro-AMC. The incubation was carried out in the kinetic mode at 30° C. for 30 minutes. Fluorescence was measured using Fluorostar at excitation filter of 380 nm and emission filter of 460 nm). Test compounds and solvent controls were added as 1 μl additions. A standard curve of free amino methyl coumarin (AMC) was generated using 0–100 μM AMC in the assay buffer. The curve generated, which was linear was used for the interpolation of catalytic activity.
Test compounds dissolved in DMSO at 5–6 concentrations were tested in duplicate along with the solvent control and blank samples. Percent inhibition was calculated at each concentration with respect to the solvent control sample (no test compound added). IC50 values were calculated from 3 experiments using the prism software.

inhibition at 0.3 µM	SMILES
25%	N#Cc1ccc(OC[C@H]2CC[C@@H](NCC(=O)N3CCC[C@H]3C#N)C2)c2oc3ccccc3c12 [Example-51, (2S)-1-{2-[(3S,1R)-3-(1-Cyanodibenzo[b,d]furan-4-yloxymethyl)cyclopentylamino]-acetyl}-pyrrolidine-2-carbonitrile]

Same assay, conditions: n = 3, substrate Gly-Pro-AMC, 30° C., 30 minutes, read-out: DPP-IV inhibition IC50

IC50	SMILES
91.8 nM	N#C[C@@H]1CCCN1C(=O)CN[C@@H]1CC[C@H](CS(=O)(=O)c2ccccc2)C1 [Example-31, (2S)-1-{2-[(3S,1R)-3-Phenylsulfonylmethylcyclopentylamino]acetytl}-pyrrolidine-2-carbonitrile]
37 nM	N#C[C@@H]1CCCN1C(=O)CN[C@H]1CC[C@@H](CSc2ccccc2)C1 [Example-32, (2S)-1-{2-[(1S,3R)-3-Phenylsulfanylmethylcycopentylamino]acetyl}-pyrrolidine-2-carbonitrile]
57.3 nM	N#C[C@@H]1CCCN1C(=O)CN[C@H]1CC[C@@H](CS(=O)(=O)c2ccccc2)C1 [Example-33, (2S)-1-{2-[(1S,3R)-3-Phenylsulfonylmethylcyclopentylamino]acetyl}-pyrrolidine-2-carbonitrile]
26.1 nM	N#C[C@@H]1CCCN1C(=O)CN[C@H]1CC[C@@H](CSc2ccc(F)cc2)C1 [Example-34, (2S)-1-{2-[(1S,3R)-3-(4-Fluorophenylsulfanylmethyl)cyclopentylamino]acetyl}-pyrro-lidine-2-carbonitrile]
70.9 nM	N#C[C@@H]1CCCN1C(=O)CN[C@H]1C=C[C@@H](CSc2ccccn2)C1 [Example-35, (2S)-1-{2-[(4S,1R)-4-(2-Pyridylsulfanylmethyl)cyclopent-2-enealino]acetyl}-pyrrolidine-2-carbonitrile]
10.6 nM	N#C[C@@H]1CCCN1C(=O)CN[C@H]1CC[C@@H](CSc2ccccn2)C1 [Example-36, (2S)-1-{2-[(1S,3R)-3-(2-Pyridylsulfanylmethyl)cyclopentylamino]acetyl}-pyrrolidine-2-carbonitrile]
66 nM	N#C[C@@H]1CCCN1C(=O)CN[C@H]1CC[C@@H](CS(=O)(=O)c2ccccn2)C1 [Example-37, (2S)-1-{2-[(1S,3R)-3-(2-Pyridylsulfonylmethyl)cyclopentylamino]acetyl}-pyrrolidine-2-carbonitrile]
15.8 nM	N#C[C@@H]1CCCN1C(=O)CN[C@@H]1CC[C@H](CSc2ncccn2)C1 [Example-41, (2S)-1-{2-[(3S,1R)-3-(2-Pyrimidinylsulfanylmethyl)cyclopentylamino]acetyl}-pyrrol-idine-2-carbonitrile]
26.8 nM	N#C[C@@H]1CCCN1C(=O)CN[C@@H]1CC[C@H](CSc2nc3ccccc3[nH]2)C1 [Example-42, (2S)-1-{2-[(3S,1R)-3-(1H-Benzo[d]imidazol-2-ylsulfanylmethyl)cyclopentylamino]-acetyl}-pyrrolidine-2-carbonitrile]
25.8 nM	N#C[C@@H]1CCCN1C(=O)CN[C@@H]1CC[C@H](COc2ccc([N+](=O)[O-])cc2)C1 [Example-44, (2S)-1-{2-[(3S,1R)-3-(4-Nitrophenoxymethyl)cyclopentylamino]acetyl}-pyrrolidine-2-carbonitrile]
49.9 nM	N#C[C@@H]1CCCN1C(=O)CN[C@H]1CC[C@@H](COc2ccc([N+](=O)[O-])cc2)C1 [Example-45, (2S)-1-{2-[(3R,1S)-3-(4-Nitrophenoxymethyl)cyclopentylamino]acetyl}-pyrrolidine-2-carbonitrile]
11.6 nM	N#Cc1ccc(OC[C@@H]2CC[C@H](NCC(=O)N3CCC[C@H]3C#N)C2)cc1 [Example-46]
13.8 nM	N#Cc1ccc(OC[C@H]2CC[C@@H](NCC(=O)N3CCC[C@H]3C#N)C2)cc1 [Example-47, (2S)-1-{2-[(3S,1R)-3-(4-Cyanophenoxymethyl)cyclopentylamino]acetyl}-pyrrolidine-2-carbonitrile]
13.5 nM	N#Cc1ccc(OC[C@H]2CC[C@@H](NCC(=O)N3CCC[C@H]3C#N)C2)cc1 [Example-48, (2S)-1-{2-[(3S,1R)-3-(4-Cyanophenoxymethyl)cyclopentylamino]acetyl}-pyrrolidine-2-carbonitrile hydrochloride]
23.5 nM	N#Cc1ccc(OC[C@H]2CC[C@@H](NCC(=O)N3CCC[C@H]3C#N)C2)cc1F [Example-49, (2S)-1-{2-[(3S,1R)-3-(4-Cyano-3-fluorophenoxymethyl)cyclopentylamino]acetyl}-pyrrolidine-2-carbonitrile]
2.56 nM	N#Cc1ccc(OC[C@H]2CC[C@@H](NCC(=O)N3C[C@@H](F)C[C@H]3C#N)C2)cc1F [Example-50, (2S,4S)-1-{2-[(3S,1R)-3-(4-Cyano-3-fluorophenoxymethyl)cyclopentylamino]acetyl}-4-fluoro-pyrrolidine-2-carbonitrile]
